Patent US8623832B2, “Peptide compositions that bind TLR-4” (The Board of Regents of the University of Oklahoma, priority 2011, dated 2014)
Where no end group is shown, it is not given here.

Columns and labels:
[1] = test system: primary adult baboon lung DCs and fetal baboon lung DC-precursor cells; assay: TNF-α secretion against E. coli by baboon lung DCs (ELISA); assay type: cell-based
Procedure: After confirming that the fluorescence is of phagocytosed bioparticles, comprehensive experiments were performed in presence and absence of effector molecules (SP-A and TLR4-MD2 proteins). The cells were pulsed with purified, native baboon lung SP-A and recombinant human TLR4-MD2 or MD2 proteins (RnD Systems, MN) for an hour prior to phagocytosis assay with pHrodo-conjugated, heat-killed E. coli K12 bioparticles (Invitrogen-Molecular Probes, CA). MD2 protein was also included, because SP-A is known to interact with MD2, and it was questioned if MD2 can influence the immune functions of DC-population. The assay was performed in serum-free Opti-MEM medium (Invitrogen, CA), as described by the manufacturer (Invitrogen-Molecular Probes, CA). The assay mixtures were incubated for another 3 hours at 37° C. in 5% CO2 incubator. The fluorescence readings were taken at 550 nm excitation and 600 nm emission wavelengths using SpectraMax M2 spectrofluorometer (Molecular Devices, CA).
Cytokine (TNF-α) measurement: The TNF-α levels were measured in cell-free supernatants by enzyme linked immunosorbent assay (ELISA) using a commercially available kit (eBioscience, CA), as per the manufacturer's instructions. Briefly, the microwells of a 96 well plate were coated with diluted purified anti-human TNF-α antibody. The wells were washed, and nonspecific sites were blocked. Diluted recombinant human TNF-α (7.8-500 pg/ml standard) and cell-free-supernatant (1:10) were added to the antibody-coated wells, and the plate was incubated overnight at 4° C. The next day, the plate was washed and incubated with biotin-conjugated anti-human TNF-α antibody followed by avidin-horseradish peroxidase and substrate solution. The reaction was stopped by adding 2 N H2SO4 and read at 450 nm (Molecular Devices, CA).

[2] = biological target: T1, recombinant TLR4-MD2 protein (Homo sapiens, UniProt O00206); assay: Microwell-based binding to immobilized recombinant TLR4-MD2 protein; settings: for binding to surface-bound TLR4-MD2 protein: 0.25 μg TLR4-MD2 per well, detected with SP-A-specific antibody
T1 construct: extracellular domain of human TLR4 protein (Glu 24-Lys 631 amino acids); 10x histidine tag (C); signal peptide from human CD33 (N); purchased R&D Systems, MN; host or cells: mouse myeloma cell line NS0
Source text: Interaction between purified baboon lung SP-A, SP-A-peptides and TLR4-MD2 proteins using a microwell-based method: The binding between the purified baboon lung SP-A, SP-A-peptides and recombinant TLR4-MD2 and MD2 proteins was studied in vitro using a microwell-based method (Awasthi et al., 2004). The soluble, recombinant TLR4-MD2 protein (R&D Systems, MN) consisted of a mixture of recombinant human-TLR4 and MD2 proteins. The recombinant extracellular domain of human TLR4 protein (Glu 24-Lys 631 amino acids), was joined with a DNA sequence encoding the signal peptide from human CD33 and a 10× histidine tag at the C-terminus (Accession # O00206). For MD2 protein, a DNA sequence encoding the signal peptide from human CD33 was joined with the mature region of human MD-2 (mature region, Glu 17-Asn 160 amino acids) and a 10× histidine tag at the C-terminus (Accession # Q9Y6Y9). The chimeric proteins were expressed in a mouse myeloma cell line, NS0 (R&D Systems, MN). The proteins were obtained from the manufacturer in carrier-free condition and reconstituted in PBS containing 0.1% low-endotoxin BSA (MP Biomedicals, OH). MD2, an adaptor molecule for TLR4, is expressed by immune cells, and is known to bind TLR4 in a non-covalent manner (Jain et al., 2008). Thus, the binding of SP-A to the recombinant MD2 protein (R&D Systems, MN) was also studied.
For the binding assay, microwell ultra-high-protein binding Immunolon 4HBX strips (Thermo Scientific, MA) were coated with soluble recombinant-TLR4-MD2 protein or MD2 protein (R&D Systems, 250 ng per well, diluted in 0.1 M NaHCO3, pH 9.6) overnight at room temperature. The plates were washed three times, and non-specific sites were blocked for 2 h at room temperature using phosphate buffered saline containing 0.1% triton-X 100 and 3% nonfat milk (Buffer A). […] The immune-complex was detected using 3,3′,5,5′-tetramethylbenzidine (TMB) substrate system (Sigma-Aldrich, MO). The reaction was stopped with 2 N H2SO4 and read at 405 and/or 450 nm spectrophotometrically (Molecular Devices, CA).

[3] = test system: LPS-induced acute inflammation; assay: Mouse model of LPS-inflammation (endotoxic shock-like symptoms, TNF-α); assay type: in vivo, Balb/c Mice; settings: mice; for LPS-induced clinical symptoms (endotoxic shock-like): LPS 0.1 μg/g body weight i.p., SPA4 2.5 μg/g, SP-A 0.5 μg/g; for LPS-induced circulatory TNF-α amounts: LPS 0.1 μg/g body weight, serum, ELISA; for LPS-induced TNF-α levels in lung tissue homogenates: LPS 1 μg/g or 15 μg/g body weight, treated at 1 hour, sacrificed at 5 hours
Procedure: In Example 5, the efficacy of SPA4 peptide in inhibiting LPS-induced acute inflammation was investigated in a mouse model of LPS-inflammation. Balb/c Mice were challenged with E. coli 0111:B4 highly purified, low protein-derived LPS (0.1 or 1 or 15 μg/g body wt) via an intraperitoneal route, one hour prior to treatment with SPA4 peptide (2.5 μg/g body weight) or full-length purified SP-A (0.5 μg/g body weight) via an intraperitoneal route. The mice were monitored for endotoxic-shock like clinical symptoms (including, but not limited to, ruffled fur, eye exudates, diarrhea, prostration, and lack of reactivity), and these symptoms were scored on the basis of severity from 0 to 3, and average clinical symptom indices were calculated for each animal based on the symptom grades (Metkar et al., 2007). Endotoxic-shock like clinical symptoms were noted (at 5 or 7 hours), and mice were sacrificed at different time-intervals after LPS challenge. Major organs and blood specimens were collected. Secreted amounts of TNF-α cytokine were measured in serum and lung tissue homogenates by ELISA method.

T1 sequence (O00206 24-631): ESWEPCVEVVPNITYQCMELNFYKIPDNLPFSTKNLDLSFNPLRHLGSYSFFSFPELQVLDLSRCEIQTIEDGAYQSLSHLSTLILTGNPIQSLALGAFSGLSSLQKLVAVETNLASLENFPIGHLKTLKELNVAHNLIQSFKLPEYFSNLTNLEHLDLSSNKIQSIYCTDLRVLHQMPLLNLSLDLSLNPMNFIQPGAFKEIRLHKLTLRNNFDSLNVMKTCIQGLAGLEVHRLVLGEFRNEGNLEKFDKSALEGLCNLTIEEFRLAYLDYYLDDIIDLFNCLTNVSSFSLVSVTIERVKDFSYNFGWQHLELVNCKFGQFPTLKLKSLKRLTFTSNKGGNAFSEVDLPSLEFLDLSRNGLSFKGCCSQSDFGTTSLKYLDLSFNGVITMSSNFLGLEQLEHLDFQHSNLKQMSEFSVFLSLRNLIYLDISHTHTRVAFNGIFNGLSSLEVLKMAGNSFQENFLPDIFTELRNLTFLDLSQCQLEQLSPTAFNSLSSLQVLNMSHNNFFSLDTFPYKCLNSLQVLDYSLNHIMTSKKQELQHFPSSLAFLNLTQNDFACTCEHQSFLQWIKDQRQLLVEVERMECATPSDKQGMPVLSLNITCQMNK
T1 sequence (Q9Y6Y9 17-160 partner limits assumed): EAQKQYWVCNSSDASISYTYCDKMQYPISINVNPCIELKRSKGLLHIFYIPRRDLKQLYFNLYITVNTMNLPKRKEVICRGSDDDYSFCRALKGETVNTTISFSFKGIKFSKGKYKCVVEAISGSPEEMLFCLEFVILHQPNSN

Row | Substance | secretion of TNF-α by DCs in response to E. coli ([1]; 3 hours phagocytosis reaction, protein added alone) | TLR4-MD2 protein-induced TNF-α release against E. coli ([1]; SP-A and TLR4-MD2 added together, 3 hours with E. coli) | binding to surface-bound TLR4-MD2 protein [2] | LPS-induced clinical symptoms (endotoxic shock-like) [3] | LPS-induced circulatory TNF-α amounts [3] | LPS-induced TNF-α levels in lung tissue homogenates [3] | efficiency of binding to TLR4-MD2 protein compared with whole native SP-A protein ([2]; SPA4 2-20 μg versus SP-A 2-10 μg)
1 | SP-A: native surfactant protein-A purified from bronchioalveolar lavage fluid of a normal healthy adult baboon (MWLCPLALTLTLMAASGAACEVKDVCVGSPGIPGTPGSHGLPGRDGRDGVKGDPGPP; listed as Papio cynocephalus) | did not induce the secretion of TNF-α | reduces | showed binding | inhibit | reduced | low | 
2 | GDFRYSDGTPVNYTNWYRGE [SPA4, GDFRYSDGT PVNYTNWYRGE] |  |  | binds to TLR4-MD2 protein | inhibit | reduced | reduced | less efficient
